{"source": "patent US20030144347A1", "about": "“Method for treating autoimmune disease” (priority 2001, published 2003)", "format_in_all_cases": "in vivo, human", "key": {"[1]": {"test_system": "patient with eosinophilic gastroenteritis", "assay": "Case report: patient with recurrent eosinophilic gastroenteritis", "conditions": "Example 20; 7.5 mg every three days then 7.5 mg every other day; withdrawn from prednisone", "protocol": "A patient presented depressed related to a 15 pound weight gain following a recurrent of eosinophilic gastroenteritis treated with 20 mg of prednisone. This was their third bout in two years, all confirmed by a stomach biopsy. Each recurrence began between four and five months after being withdrawn from steroids, which had caused physical side effects and suspiciousness. A trial of Topamax 7.5 mg every three days and then 7.5 mg every other day was begun."}, "[2]": {"test_system": "patient suffering from psoriasis", "assay": "Case reports: patients suffering from psoriasis", "protocol": "A patient suffering from psoriasis began taking 15 mg per day of topiramate for seven days, which was increased by 15 mg per day until reaching a dose of 45 mg/day in equally divided doses."}, "[3]": {"test_system": "patient suffering from ulcerative colitis", "assay": "Case reports: patients suffering from ulcerative colitis"}, "[4]": {"test_system": "patient suffering from diabetes, Type 1", "assay": "Case report: patient suffering from diabetes, Type 1", "conditions": "Example 2", "protocol": "A patient suffering from diabetes, Type 1, was administered 25 mg per day of topiramate for 10 days, which was then increased to 50 mg per day."}, "[5]": {"test_system": "patient suffering from psoriatic arthritis", "assay": "Case reports: patients suffering from psoriatic arthritis", "protocol": "A patient suffering from psoriatic arthritis began taking 15 mg per day of topiramate. […] When the dose was increased slightly to 25 mg twice a day, the patient realized they were experiencing minimal pain and resumed garden work using a rototiller for the first time in two years. These benefits have continued for more than five months at this dose. […] This has continued for more than ten months. A patient suffering from psoriatic arthritis began taking 25 mg per day of topiramate. The dosage was increased each week until […] was achieved. […] The patient was stabilized at 25 mg, twice a day, for convenience. Their benefits from topiramate have continued for almost five months."}, "[6]": {"test_system": "patient suffering from multiple autoimmune diseases", "assay": "Case report: patient suffering from multiple autoimmune diseases", "conditions": "Example 15", "protocol": "A patient suffering from multiple autoimmune diseases was treated with topiramate. The patient was suffering from systemic lupus erythematosis (SLE) acquired anemia of gamma globulins, rheumatoid arthritis, Renaud's phenomena and Hashimotos thyroiditis. The patient was also taking medrol at doses of 32 mg per day and up to 132 mg per day and 25 mg weekly injections of methotrexate.\nThe topiramate treatment was begun at 15 mg per day and increased weekly by 15 mg to […] and then stabilized at 50 mg per day after two months. […] The frequency and intensity of their iritis, which was occurring every one to two months and lasting for 1 to 2 weeks, described as an “incredible pain relieved only by wrapping my eyes and head with a black towel”, decreased. It has occurred only once since using Topamax® when their parent was dying. […] The patient drove to their last appointment, which is the first time they have been able to do so in five years. They have now had consistent benefits for more than 6 months."}, "[7]": {"test_system": "patient suffering from multiple sclerosis", "assay": "Case reports: patients suffering from multiple sclerosis treated with topiramate", "protocol": "A patient suffering from multiple sclerosis was administered 15 mg per day of topiramate. The dosage was increased after 15 days to 30 mg per day. At 15 mg, the patient's involuntary stretch rigid response stopped and the patient was able to get out of bed without falling backward when their feet touched the floor for the first time in nine years.\nThe patient previously took trazadone 100 mg at bedtime, clonazepan 1 mg three times a day, citalapram 40 mg each morning, gabapentrin 600 mg four times a day, and synthroid 25 mcg per day for two years. They had refused steroids and interferon because of side effects.\nThe Topamax was increased to 15 mg at bedtime and they reported “no bad bladder accidents” and that their leg and foot cramps had disappeared. […] They were discharged on Topamax 15 mg at bedtime along with previous medications. The patient was much improved medically and emotionally.\nThe patient returned four weeks later walking with a cane, having worked “10 to 14 hours per day and exhausted from my move with little sleep during the past month”. They reported “insatiable itching all over my body wherever my clothes touch the skin” which […] unsuccessfully tried to treat with cetirizine. […] said […] felt “dizzy, weak, Charlie horses in arches of feet and toes, unable to stand for more than 10 minutes before starting to have gait problems, problems sleeping, having trouble mentally and urine leaking”. […] working diagnoses are Axis I Bipolar disorder, not otherwise specified Axis III multiple sclerosis. […]"}, "[8]": {"test_system": "patient suffering from pemphigus vulgaris", "assay": "Case reports: patients suffering from pemphigus vulgaris", "protocol": "A patient suffering from pemphigus vulgaris and taking 15 mg of chobetesol propionate per day began taking 15 mg per day of topiramate. The dose was increased to 45 mg in divided dosages over a three week period. […] This occurred and was maintained even after chobetesol propionate was reduced to 5 mg every 3 days, at 8 weeks from the initial dose of 15 mg per day. […] A patient suffering from permphigus vulgaris and taking 50 mg twice a day of immuran and 20 mg per day of prednisone began taking 15 mg per day of topiramate. The dose was increased to 45 mg per day in divided dosages over a three-week period. […] This occurred in spite of reducing the immuran to 50 mg and prednisone to 10 mg each day, which were their lowest dosages in two years. […] These improvements continued to be maintained at 20 weeks and Ig antibody was zero."}, "[9]": {"conditions": "Example 6, 25 mg per day, 4 weeks"}, "[10]": {"conditions": "Example 18, 15 mg at bedtime, two days later"}}, "data": [{"smiles": "CC1(C)O[C@@H]2[C@@H](CO[C@@]3(COS(N)(=O)=O)OC(C)(C)O[C@@H]23)O1", "note": "[topiramate, 2,3:4,5-bis-O-(1-methylethylidence)-β-D-fructopyranose sulfamate]", "values": [{"measurement": "time without recurrence of symptoms", "setting": "[1]", "value": 19, "unit": "months"}, {"measurement": "time at which PASI decrease was maintained", "setting": "[2]; Example 12", "value": 16, "unit": "weeks"}, {"measurement": "psoriasis area and severity index (PASI)", "setting": "[2]; Example 12, 25 mg bid, within 8 weeks, from 12.2", "value": 5.4}, {"measurement": "lesions", "setting": "[2]; Example 12, after 10 days at 45 mg", "value": "began to decrease"}, {"measurement": "lesions", "setting": "[2]; Example 16, 15 mg every other day", "value": "minimal improvement"}, {"measurement": "lesions", "setting": "[2]; Example 16, 15 mg per day for 7 days", "value": "some improvement"}, {"measurement": "lesions", "setting": "[2]; Example 16, 30 mg/day in divided dosages", "value": "began to get worse"}, {"measurement": "lesions", "setting": "[2]; Example 16, 45 mg/day in divided doses", "value": "clear deterioration"}, {"measurement": "lesions", "setting": "[2]; Example 16, 60 mg per day", "value": "new lesions were occurring"}, {"measurement": "PASI", "setting": "[2]; Example 16, within the first eight weeks, judged to be unchanged", "value": 29.1}, {"measurement": "duration of benefit", "setting": "[3]; Example 8, 7.5 mg per day", "value": "more than 16 weeks"}, {"measurement": "mucous", "setting": "[3]; Example 8, 7.5 mg per day, after 7 days", "value": "decrease in mucous"}, {"measurement": "mucous and bleeding", "setting": "[3]; Example 8, 7.5 mg per day, after two weeks", "value": "no mucous or bleeding"}, {"measurement": "adverse effect", "setting": "[3]; Example 8, 15 mg per day", "value": "tired during the day"}, {"measurement": "stools, bowel frequency, mucous", "setting": "[3]; Example 8, 15 mg per day, after two weeks", "value": "stools became darker with increase bowel frequency of movements and mucous"}, {"measurement": "mucous, bowel movements, bleeding", "setting": "[3]; Example 8, resumed at 7.5 mg per day", "value": "decrease in mucous, bowel movements and bleeding"}, {"measurement": "duration of benefit", "setting": "[3]; Example 10, 7.5 mg per day", "value": 18, "unit": "weeks"}, {"measurement": "bowel frequency, bleeding and mucous", "setting": "[3]; Example 10, 15 mg per day, within one week", "value": "significant decrease in bowel frequency, bleeding and mucous"}, {"measurement": "bowel frequency, bleeding and mucous", "setting": "[3]; Example 10, dose increased to 30 and then to 45 mg per day", "value": "reversal of benefits and then a further exacerbation of systems"}, {"measurement": "bowel frequency, bleeding and mucous", "setting": "[3]; Example 10, resumed at 7.5 mg per day", "value": "significant decrease in frequency of bowel movement, bleeding and mucous"}, {"measurement": "follow-up period with blood glucose remaining in that range", "setting": "[4]", "value": 16, "unit": "weeks"}, {"measurement": "getting out of bed", "setting": "[5]; Example 5, 15 mg every morning and 30 mg every evening, after one month", "value": "able to more easily get out of bed"}, {"measurement": "skin lesions and joint pain", "setting": "[5]; Example 5, 15 mg twice per day", "value": "some improvement in skin lesions and decreased joint pain"}, {"measurement": "duration of benefits", "setting": "[5]; Example 5, 25 mg twice a day", "value": "more than five"}, {"measurement": "pain", "setting": "[5]; Example 5, 25 mg twice a day", "value": "minimal pain"}, {"measurement": "duration of improvement", "setting": "[5]; Example 6, 7.5 mg twice a day", "value": "more than ten"}, {"measurement": "adverse effect", "setting": "[5]; [9]", "value": "severe lethargy"}, {"measurement": "middle knuckle swelling", "setting": "[5]; [9]", "value": "significant reduction and almost total disappearance"}, {"measurement": "course of improvement", "setting": "[5]; Example 6, dose reduced to 7.5 mg twice a day", "value": "improvement continued"}, {"measurement": "duration of benefits", "setting": "[5]; Example 7, 25 mg, twice a day", "value": "five"}, {"measurement": "pain and mobility", "setting": "[5]; Example 7, 45 mg per day", "value": "significant decrease in pain and greater mobility"}, {"measurement": "time without another episode of iritis", "setting": "[6]", "value": "five"}, {"measurement": "frequency and intensity of iritis", "setting": "[6]; 50 mg per day", "value": "decreased"}, {"measurement": "duration of consistent benefits", "setting": "[6]; despite cessation of methotrexate", "value": "more than 6 months"}, {"measurement": "pain when walking", "setting": "[6]; up to 65 mg per day, stabilized at 50 mg per day, medrol reduced to 5 mg per day", "value": "very significant decrease in pain when walking"}, {"measurement": "duration of beneficial effect", "setting": "[7]; Example 1, 12.5 mg per day", "value": "more than 10 months"}, {"measurement": "involuntary stretch rigid response", "setting": "[7]; Example 1, 15 mg per day", "value": "stopped"}, {"measurement": "spastic rigid response", "setting": "[7]; Example 1, dose lowered to 12.5 mg per day", "value": "no longer present"}, {"measurement": "involuntary stretch rigid response", "setting": "[7]; Example 1, higher dose of 30 mg per day", "value": "reversed this benefit"}, {"measurement": "walking and back pain", "setting": "[7]; Example 18, 7.5 mg at bedtime for three days", "value": "walking better and reported reduced back pain"}, {"measurement": "leg and foot cramps", "setting": "[7]; Example 18, 15 mg at bedtime", "value": "disappeared"}, {"measurement": "urinary incontinence and back pain", "setting": "[7]; [10]", "value": "no urinary incontinence or back pain"}, {"measurement": "walking", "setting": "[7]; [10]", "value": "walking without a cane"}, {"measurement": "patient-reported symptoms", "setting": "[7]; Example 18, 30 mg at bedtime, seen eight days later", "value": "no dizziness, weakness, urinary incontinence and decreased gait problems, itching and pain"}, {"measurement": "time at which improvement continued to be maintained", "setting": "[8]; Example 13", "value": 12, "unit": "weeks"}, {"measurement": "lesions", "setting": "[8]; Example 13, 45 mg in divided dosages, chobetesol propionate reduced", "value": "began to shrink, dried up and formed a scab, which came off leaving normal skin"}, {"measurement": "time at which improvements continued to be maintained", "setting": "[8]; Example 14", "value": 20, "unit": "weeks"}, {"measurement": "lesions", "setting": "[8]; Example 14, 30 mg twice a day", "value": "second lesion healing"}, {"measurement": "lesions", "setting": "[8]; Example 14, 45 mg per day, at three weeks", "value": "one lesion was shrinking"}, {"measurement": "lesions", "setting": "[8]; Example 14, 45 mg per day, by four weeks, immuran and prednisone reduced", "value": "healed and the second lesion was beginning to shrink"}, {"measurement": "Ig antibody", "setting": "[8]; Example 14, at 20 weeks", "value": "zero"}]}]}
